ChEMBL document CHEMBL1201862, “PubChem BioAssay data set” (2004)
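Five compound concentrations were applied to cells in 96-well plates for 48 hours; endpoints were derived by simple linear interpolation of the resulting dose-response curve. GI50 is the concentration that inhibits growth by half.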 Activity calls are given as the source filed them. Cut-off read from the data, not from the text of the source: active = GI50 up to about 1.1 µM and inactive = higher.

Columns and labels:
Experiment in all cases: growth of human tumour cells (NCI), 48 h
SK-MEL-5 = tested on: SK-MEL-5
NCI-H522 = tested on: NCI-H522
OVCAR-4 = tested on: OVCAR-4
OVCAR-5 = tested on: OVCAR-5
NCI-H460 = tested on: NCI-H460
MOLT-4 = tested on: MOLT-4
CCRF-CEM = tested on: CCRF-CEM
TK-10 = tested on: TK-10
SW-620 = tested on: SW-620
786-0 = tested on: 786-0
BT-549 = tested on: BT-549
SF-539 = tested on: SF-539
SF-268 = tested on: SF-268
DU-145 = tested on: DU-145
HCT-15 = tested on: HCT-15
UO-31 = tested on: UO-31
SN12C = tested on: SN12C
MDA-N = tested on: MDA-N
HCT-116 = tested on: HCT-116

Row | Compound | GI50 (SK-MEL-5) | GI50 (NCI-H522) | GI50 (OVCAR-4) | GI50 (OVCAR-5) | GI50 (NCI-H460) | GI50 (MOLT-4) | GI50 (CCRF-CEM) | GI50 (TK-10) | GI50 (SW-620) | GI50 (786-0) | GI50 (BT-549) | GI50 (SF-539) | GI50 (SF-268) | GI50 (DU-145) | GI50 (HCT-15) | GI50 (UO-31) | GI50 (SN12C) | GI50 (MDA-N) | GI50 (HCT-116)
1 | Cc1ccc(/N=N/c2ccc(O)c(CN(C)C)c2)cc1 | 14.5 µM (inactive) | 16.7 µM (inactive) | 22.6 µM (inactive) | 14.4 µM (inactive) | 16.5 µM (inactive) | 19.2 µM (inactive) | 22.8 µM (inactive) | 21.7 µM (inactive) | 20.7 µM (inactive) | 22.3 µM (inactive) | 23.1 µM (inactive) | 17.7 µM (inactive) | 20.2 µM (inactive) | 17.8 µM (inactive) | 20.6 µM | 16 µM (inactive) | 35.8 µM (inactive) | 16.2 µM (inactive) | 22.5 µM (inactive)
2 | CC1=CC(=O)N(n2c(Cc3ccc(Cl)cc3)n[nH]c2=O)C1=O | 46 µM (inactive) | 17.4 µM (inactive) | 38.6 µM (inactive) | > 100 µM (inactive) | 36.1 µM (inactive) | 20.8 µM (inactive) | 7.91 µM (inactive) | 98.9 µM (inactive) | 32.5 µM (inactive) | 60.5 µM (inactive) | 35.3 µM (inactive) | 39.1 µM (inactive) | 70.1 µM (inactive) | > 100 µM (inactive) | 44.9 µM | > 100 µM (inactive) | 81.3 µM (inactive) | 44.7 µM (inactive) | 40.3 µM (inactive)
3 | O=C(O)Cn1ccc(=O)c2ccc([N+](=O)[O-])cc21 | > 100 µM (inactive) | > 100 µM (inactive) |  | > 100 µM (inactive) | > 100 µM (inactive) | > 100 µM (inactive) | > 100 µM (inactive) | > 100 µM (inactive) | > 100 µM (inactive) | > 100 µM (inactive) | > 100 µM (inactive) | > 100 µM (inactive) | > 100 µM (inactive) | > 100 µM (inactive) | > 100 µM | > 100 µM (inactive) | > 100 µM (inactive) | > 100 µM (inactive) | > 100 µM (inactive)
4 | CC1(C)OC[C@@H](/C=C\CCO[Si](c2ccccc2)(c2ccccc2)C(C)(C)C)N1C(=O)c1ccccc1 | 2.51 µM (inactive) | 3.61 µM (inactive) | 7.76 µM (inactive) | 16.3 µM (inactive) | 3.79 µM (inactive) | 3.13 µM (inactive) | 6.21 µM (inactive) | 11.2 µM (inactive) | 14.5 µM (inactive) | 11.6 µM (inactive) | 18.5 µM (inactive) | 18.3 µM (inactive) | 13.9 µM (inactive) | 18.8 µM (inactive) | 5.13 µM | 11.9 µM (inactive) | 11.1 µM (inactive) | 15.8 µM (inactive) | 3.41 µM (inactive)
5 | N#C/C=c1/c2ccccc2n2nc3ccccc3c12 | 26.7 µM (inactive) | 12.5 µM (inactive) | 11.6 µM (inactive) | 67.6 µM (inactive) | 8.09 µM (inactive) |  | 81.7 µM (inactive) | 8.02 µM (inactive) | 25.6 µM (inactive) | 5.01 µM (inactive) | > 100 µM (inactive) | 8.69 µM (inactive) | 10.9 µM (inactive) | > 100 µM (inactive) | 43.3 µM | 10.8 µM (inactive) | 25.2 µM (inactive) | > 100 µM (inactive) | 3.09 µM (inactive)
6 | COC(=O)c1ccccc1NC(=S)NN(C)C |  | > 100 µM (inactive) | > 100 µM (inactive) | > 100 µM (inactive) |  | > 100 µM (inactive) | > 100 µM (inactive) | > 100 µM (inactive) | > 100 µM (inactive) | > 100 µM (inactive) | > 100 µM (inactive) | > 100 µM (inactive) |  | > 100 µM (inactive) | > 100 µM | > 100 µM (inactive) |  | > 100 µM (inactive) | > 100 µM (inactive)
7 | c1ccc2cc(CNCCCCNCCCNCc3ccc4ccccc4c3)ccc2c1 | 2.4 µM (inactive) | 1.14 µM (inactive) | 1.6 µM (inactive) | 1.87 µM (inactive) | 0.188 µM (active) | 0.256 µM (active) | 0.351 µM (active) | 1.75 µM (inactive) | 0.324 µM (active) | 0.423 µM (active) | 1.78 µM (inactive) | 1.69 µM (inactive) | 1.41 µM (inactive) | 1.27 µM (inactive) | 0.824 µM | 1.42 µM (inactive) | 0.733 µM (active) | 0.993 µM (active) | 0.3 µM (active)
8 | O=C1C(N2CCOCC2)=C(Cl)C(=O)c2ncccc21 | 1.82 µM (inactive) | 1.45 µM (inactive) | 1.56 µM (inactive) | > 10 µM (inactive) | > 6.79 µM (inactive) | 0.443 µM (active) | 0.524 µM (active) | 1.98 µM (inactive) | 1.87 µM (inactive) | 1.84 µM (inactive) | > 10 µM (inactive) | 4.89 µM (inactive) | 2.9 µM (inactive) | > 6.73 µM (inactive) | 2.03 µM | 4.23 µM (inactive) | 1.75 µM (inactive) | 1.97 µM (inactive) | 1.71 µM (inactive)
9 | COc1ccc(C2CCc3c(cnc4nc(N)nc(N)c34)C2)cc1 (stereo not drawn) | 11 µM (inactive) | 13.6 µM (inactive) | > 100 µM (inactive) | 13.9 µM (inactive) | 4.89 µM (inactive) | 9.48 µM (inactive) |  | 12.8 µM (inactive) | 5.25 µM (inactive) | 3.7 µM (inactive) | 44.7 µM (inactive) | 26.5 µM (inactive) | 12.9 µM (inactive) | 37.4 µM (inactive) | 5.15 µM |  | 7.16 µM (inactive) | 1.04 µM (active) | 1.73 µM (inactive)
10 | Cn1c(=O)[nH]n(-c2ccc3ccccc3c2)c1=O | > 100 µM (inactive) | > 100 µM (inactive) | > 100 µM (inactive) | > 100 µM (inactive) | > 100 µM (inactive) |  | > 100 µM (inactive) | > 100 µM (inactive) | > 100 µM (inactive) | > 100 µM (inactive) | > 100 µM (inactive) | > 100 µM (inactive) | > 100 µM (inactive) | > 100 µM (inactive) | > 100 µM | > 100 µM (inactive) | > 100 µM (inactive) | > 100 µM (inactive) | > 100 µM (inactive)
11 | Cc1nc(N)c(N2CCN(C#N)CC2)c(O)n1 |  | > 100 µM (inactive) |  | > 100 µM (inactive) | > 100 µM (inactive) | > 100 µM (inactive) | > 100 µM (inactive) | > 100 µM (inactive) | > 100 µM (inactive) | > 100 µM (inactive) | > 100 µM (inactive) | > 100 µM (inactive) | > 100 µM (inactive) | > 100 µM (inactive) | > 100 µM | > 100 µM (inactive) | > 100 µM (inactive) | > 100 µM (inactive) | > 100 µM (inactive)
12 | CN1CC(S(=O)(=O)c2ccccc2)CC(S(=O)(=O)c2ccccc2)C1c1ccccc1 (stereo not drawn) | 14.6 µM (inactive) | 2.9 µM (inactive) | 12 µM (inactive) | 15.2 µM (inactive) | 16.2 µM (inactive) | 16.8 µM (inactive) |  | 14.2 µM (inactive) | 8.3 µM (inactive) | 12.2 µM (inactive) | 11.7 µM (inactive) | 4.86 µM (inactive) | 16.2 µM (inactive) | 18 µM (inactive) | 12.4 µM | 15.3 µM (inactive) | 10.4 µM (inactive) | 11.6 µM (inactive) | 10.4 µM (inactive)
13 | CC(=O)N1c2ccccc2C2=NN=C(N(C)C)SC21 (stereo not drawn) |  | 2.3 µM (inactive) | 10.4 µM (inactive) | 4.24 µM (inactive) | 2.46 µM (inactive) | 3.09 µM (inactive) | 2.1 µM (inactive) | 9.06 µM (inactive) | 4.78 µM (inactive) | 2.48 µM (inactive) | 9.35 µM (inactive) | 3.48 µM (inactive) | 1.82 µM (inactive) | 1.58 µM (inactive) | 0.838 µM | 1.45 µM (inactive) | 2.08 µM (inactive) | 3.33 µM (inactive) | 2.72 µM (inactive)
14 | CC(C)=CCC[C@@H](C)/C=C/C=C(\C)C(=O)CC[C@@H]1CC[N@+]2(C)CCCC[C@H]12 | > 100 µM (inactive) | 35 µM (inactive) | > 100 µM (inactive) | 50.4 µM (inactive) | > 100 µM (inactive) | > 100 µM (inactive) |  | > 100 µM (inactive) | > 100 µM (inactive) | > 100 µM (inactive) | 65.6 µM (inactive) | > 100 µM (inactive) | 71.1 µM (inactive) | > 100 µM (inactive) | > 100 µM | > 100 µM (inactive) | > 100 µM (inactive) | > 100 µM (inactive) | > 100 µM (inactive)
15 | CCCN(C(=O)c1ccccc1)C(C#N)c1ccc(C(C#N)N(CCC)C(=O)c2ccccc2)cc1 (stereo not drawn) | 92.5 µM (inactive) | > 100 µM (inactive) | 14.5 µM (inactive) | 93.3 µM (inactive) |  | > 100 µM (inactive) | > 100 µM (inactive) | > 100 µM (inactive) | > 100 µM (inactive) | 38.1 µM (inactive) | 48.4 µM (inactive) | 28.5 µM (inactive) | 85.9 µM (inactive) | 77.6 µM (inactive) | > 100 µM | > 100 µM (inactive) | > 100 µM (inactive) | > 100 µM (inactive) | > 100 µM (inactive)
16 | Oc1ccccc1/C=N/Nc1nc(N/N=C/c2ccccc2O)nc(N/N=C/c2ccccc2O)n1 | > 100 µM (inactive) | 31.6 µM (inactive) | > 100 µM (inactive) | > 100 µM (inactive) | 44.8 µM (inactive) | 10.5 µM (inactive) |  | > 100 µM (inactive) | > 100 µM (inactive) | 40.2 µM (inactive) | 85.3 µM (inactive) | > 100 µM (inactive) | > 100 µM (inactive) | > 100 µM (inactive) | 13.3 µM | > 100 µM (inactive) | > 100 µM (inactive) | > 100 µM (inactive) | 42.2 µM (inactive)
